Structures are written as SMILES. Read-outs that look alike come from different tables or passages of the source.

The text below walks through data of US5480887A, “Protease inhibitors” (Eli Lilly and Company, priority 1994, dated 1996).

The target of one test is T1, HIV-1 Protease (Human immunodeficiency virus type 1 group M subtype B, UniProt P04585).
T1 construct: HIV-1 Protease
Briefly: biochemical. As to conditions: for IC50: read-out: Fluorescence Assay IC50 (converted). Here is the method: These compounds may be assayed using two assays: (1) an enzyme inhibition assay, and (2) an antiviral cell culture assay.
This assay is described in detail in published European Patent Application (EPA) 0 526 009, herein incorporated by reference. Using this assay, a number of the compounds, prepared above, were assayed for HIV protease inhibitory activity.
The assay is unable to test compounds at less than a concentration of 0.16 ng/mL.

Another test deals with HIV. Description: microbe, parasite or virus in culture. The class given is cell-based. As to conditions: XTT, 450 nm, * (n) = average of n assays, read-out: Antiviral Activity IC90. As to the method: In addition, the compounds described in the present application may be tested using an antiviral cell culture assay as described in Weislow, O.S., J. of National Cancer Institute, 81(8), pages 577-586 (Apr. 19, 1989) herein incorporated by reference.
This assay compares the viability of HIV-infected cells in a cell culture medium relative to the viability of such cells in the presence of a test compound. The concentration of test compound necessary to inhibit 90% of the virus is then measured using the viability of the cells as an indicator of viral inhibition. This assay is carried out using cell lines that are sensitive to the lyric effects of HIV infection.
Specifically, this assay utilizes the metabolic reduction of a tetrazolium reagent, 2,3-bis[2-methoxy-4-nitro-5-sulfophenyl]-5-[(phenylamino)carbonyl]-2H-tetrazolium hydroxide (XTT). In the presence of a viable cell, the tetrazolium reagent, XTT, is reduced to provide XTT formazan which may be quantified using colorimetric determination (at 450 nm). The intensity of the chromogenic signal is directly proportional to the concentration of the XTT formazan, thus providing a measure of the quantity of viable cells.

The mark [1] stands for this setting: Human immunodeficiency virus 1, concentration inhibiting 90% of the viral-induced toxicity.
[2] abbreviates: concentration inhibiting 90% of the viral-induced toxicity.
The mark [3] stands for this setting: concentration inhibiting 50% of the enzyme, * = calculated average with n number of assays.

For `CC(=O)N[C@H](CS(=O)(=O)c1ccc2ccccc2c1)C(=O)N[C@@H](Cc1ccccc1)[C@H](O)CN1C[C@H]2CCS[C@H]2C[C@H]1C(=O)NC(C)(C)C` [Example 28], the IC50 at HIV-1 Protease is 2.67 nM. In the test on HIV (setting [1]), the IC90 amounted to 21.8 nM.
Consider `C[C@H]1[C@@H](OC(=O)N[C@@H](CSc2ccccc2)[C@H](O)CN2C[C@H]3CCS[C@H]3C[C@H]2C(=O)NC(C)(C)C)CCS1(=O)=O` [Example 37D, N-t-Butyl-octahydro-5[2R-hydroxy-3R-N(1',1'-dioxo-2'S-methyl-tetrahydrothiophen-3'S-yloxycarbonyl)amino-4-phenylthio)-butyl]-(3aR,7aS)-thieno[3,2-c] pyridine-(6S)-carboxamide methanesulfonate], for which, at HIV-1 Protease, the IC50 is 0.358 nM. Also, in the test with HIV (setting [2]), the IC90 amounted to 1.8 nM.
Turning to `CC(C)(C)NC(=O)[C@@H]1C[C@@H]2SCC[C@@H]2CN1C[C@@H](O)[C@H](Cc1ccccc1)NC(=O)[C@@H](CS(=O)(=O)c1ccc(F)cc1)NC(=O)C(F)(F)F` [Example 19C, N-t-Butyl-octahydro-5[2R-hydroxy-3S-phenylmethyl-4-aza-5-oxo-6S-N(trifluoromethylcarbonyl)amino-7-p-fluorophenylsulfonyl-heptyl]-(3aR,7aS)-thieno[3,2-c]pyridine-(6S)-carboxamide], at HIV-1 Protease (read-out: % inhibition at the stated concentration (ICx (0.16))), the inhibition at 0.00016 µg/mL turned out to be 85%. The IC50 on HIV-1 Protease was 1.16 nM. For the same molecule, the IC90 with HIV (setting [1]) was 52 nM.
Take `CC(C)(C)NC(=O)[C@@H]1C[C@@H]2SCC[C@@H]2CN1C[C@@H](O)[C@H](CSc1ccccc1)NC(=O)[C@@H](CS(=O)(=O)c1ccc2ccccc2c1)NC(=O)C(F)(F)F` [Example 30B, N-t-Butyl-octahydro-5[2R-hydroxy-3R-phenylthiomethyl-4-aza-5-oxo-6S-N(trifluoromethylcarbonyl)amino-7-naphth-2-ylsulfonyl-heptyl]-(3aR,7aS)-thieno[3,2-c]pyridine-(6S)-carboxamide]: the IC50 on HIV-1 Protease is 1.96 nM. Moreover, the 90% effect concentration (IC90) in the test on HIV (setting [1]) turned out to be 203 nM.
With `CC(C)[C@H]1[C@@H](OC(=O)N[C@@H](CSc2ccccc2)[C@H](O)CN2C[C@H]3CCS[C@H]3C[C@H]2C(=O)NC(C)(C)C)CCS1(=O)=O` [10B-51 mg sample], the IC50 at HIV-1 Protease was 0.95 nM. Further, the IC90 with HIV (setting [1]) came out at 77 nM.
As for `CC(=O)N[C@H](CCS(C)(=O)=O)C(=O)N[C@@H](CSc1ccccc1)[C@H](O)CN1C[C@H]2CCS[C@H]2C[C@H]1C(=O)NC(C)(C)C` [Example 15B, N-t-Butyl-octahydro-5[2R-hydroxy-3R-phenylthiomethyl-4-aza-5-oxo-6R-N(acetyl)amino-8-methylsulfonyl-octyl]-(3aR,7aS)-thieno[3,2-c]pyridine-(6S)-carboxamide], the IC50 on HIV-1 Protease (setting [3]) is 13.5 nM. Further, the IC90 in the test on HIV (setting [1]) came to 7630 nM.
Take `CC(C)(C)NC(=O)[C@@H]1C[C@@H]2SCC[C@@H]2CN1C[C@@H](O)[C@H](CSc1ccccc1)NC(=O)[C@@H](CS(=O)(=O)c1ccc(F)cc1)NC(=O)C(F)(F)F` [Example 29, N-t-Butyl-octahydro-5[2R-hydroxy-3R-phenylthiomethyl-4-aza-5-oxo-6S-N(trifluoromethylcarbonyl)amino-7-p-fluorophenylsulfonyl-heptyl]-(3aR,7aS)-thieno[3,2-c]pyridine-(6S)-carboxamide]: on HIV-1 Protease, the IC50 is 11.1 nM. For the same molecule, the IC90 in the test with HIV (setting [1]) worked out at 754 nM.
In the case of `CC(C)(C)NC(=O)[C@@H]1C[C@@H]2SCC[C@@H]2CN1C[C@@H](O)[C@H](Cc1ccccc1)NC(=O)[C@@H](CS(=O)(=O)c1ccc(F)cc1)NS(C)(=O)=O` [Example 19B, N-t-Butyl-octahydro-5[2R-hydroxy-3S-phenylmethyl-4-aza-5-oxo-6S-N(methylsulfonyl)amino-7-p-fluorophenylsulfonyl-heptyl]-(3aR,7aS)-thieno[3,2-c]pyridine-(6S)-carboxamide], the IC50 at HIV-1 Protease (setting [3]) is 0.224 nM. The IC90 with HIV (setting [1]) came out at 233 nM.
Turning to `CC(=O)N[C@H](CS(=O)(=O)c1ccc(F)cc1)C(=O)N[C@@H](CSc1ccccc1)[C@H](O)CN1C[C@H]2CCS[C@H]2C[C@H]1C(=O)NC(C)(C)C` [Example 21B, N-t-Butyl-octahydro-5[2R-hydroxy-3R-phenylthiomethyl-4-aza-5oxo-6S-N(acetyl)amino-7-p-fluorophenylsulfonyl-heptyl]-(3aR,7aS)-thieno[3,2-c]pyridine-(6S)-carboxamide], the IC50 at HIV-1 Protease (setting [3]) is 1.83 nM. Besides, the 90% effect concentration (IC90) in the test on HIV (setting [1]) was determined as 78 nM.
For the molecule `C[C@@H]1[C@@H](OC(=O)N[C@@H](CSc2ccccc2)[C@H](O)CN2C[C@H]3CCS[C@H]3C[C@H]2C(=O)NC(C)(C)C)CCS1(=O)=O` [34-Fraction A], the IC50 at HIV-1 Protease was 7.28 nM. In addition, the IC90 in the test with HIV (setting [1]) came out at 45.2 nM.
For `CC(C)[C@@H]1[C@H](OC(=O)N[C@@H](CSc2ccccc2)[C@H](O)CN2C[C@H]3CCS[C@H]3C[C@H]2C(=O)NC(C)(C)C)CCS1(=O)=O` [10B-52 mg sample], the IC50 on HIV-1 Protease is 0.421 nM. Further, the IC90 in the test on HIV (setting [1]) is 9 nM.
For `CC(=O)N[C@H](CS(=O)(=O)c1cccc2cccnc12)C(=O)N[C@@H](Cc1ccccc1)[C@H](O)CN1C[C@H]2CCS[C@H]2C[C@H]1C(=O)NC(C)(C)C` [Example 25, N-t-Butyl-octahydro-5[2R-hydroxy-3S-phenylmethyl-4-aza-5-oxo-6S-N(acetyl)amino-7-quinolin-8-ylsulfonyl-heptyl]-(3aR,7aS)-thieno[3,2-c]pyridine-(6S)-carboxamide] the same measures were 0.239 nM and 279 nM.
As for `CC(C)(C)NC(=O)[C@@H]1C[C@@H]2SCC[C@@H]2CN1C[C@@H](O)[C@H](Cc1ccccc1)NC(=O)[C@@H](CS(=O)(=O)c1cccc2cccnc12)NC(=O)C(F)(F)F` [Example 24B, N-t-Butyl-octahydro-5[2R-hydroxy-3S-phenylmethyl-4-aza-5-oxo-6S-N(trifluoromethylcarbonyl)amino-7-quinolin-8-ylsulfonyl-heptyl]-(3aR,7aS)-thieno[3,2-c]pyridine-(6S)-carboxamide], the IC90 in the test with HIV (setting [1]) is 81.8 nM.
`CC(C)(C)NC(=O)[C@@H]1C[C@@H]2SCC[C@@H]2CN1C[C@@H](O)[C@H](CSc1ccccc1)NC(=O)[C@H](CC(N)=O)NC(=O)c1ccc2ccccc2n1` [Example 14C]: the IC90 with HIV (setting [1]) was 28 nM.
Consider `C[C@@H]1[C@H](OC(=O)N[C@@H](CSc2ccccc2)[C@H](O)CN2C[C@H]3CCS[C@H]3C[C@H]2C(=O)NC(C)(C)C)CCS1(=O)=O` [31D-Fraction A], for which the IC90 with HIV (setting [2]) was found to be 30.3 nM.
For the molecule `CC(C)[C@@H]1[C@H](OC(=O)N[C@@H](CSc2ccccc2)[C@H](O)CN2C[C@H]3CCS[C@H]3C[C@H]2C(=O)NC(C)(C)C)CCS1(=O)=O` [Example 40D, N-t-Butyl-octahydro-5[2R-hydroxy-3R-N(1',1'-dioxo-2'R-isopropyl-tetrahydrothiophen-3'R-yloxycarbonyl)amino-4-phenylthio-)-butyl]-(3aR,7aS)-thieno[3,2-c] pyridine-(6S)-carboxamide methanesulfonate], the IC90 with HIV (setting [1]) amounted to 7.1 nM.
Consider `C[C@H]1[C@@H](OC(=O)N[C@@H](CSc2ccccc2)[C@H](O)CN2C[C@H]3CCS[C@H]3C[C@H]2C(=O)NC(C)(C)C)CCS1(=O)=O` [31D-Fraction B], for which the IC90 with HIV (setting [2]) was 31.4 nM.

What is called IC50 is the concentration needed to halve the response being measured. In general, IC90 refers to the point of the concentration-response curve where the effect stands at 90%.
